Literature values in patent US20080051430A1, “Acylated Piperidine Derivatives as Melanocortin 4-Receptor Agonists” (priority 2004, published 2008).

Assays:
[1] = tested on: males with psychogenic erectile dysfunction
[2] = in vivo, po
[3] = tested on: men with a variety of organic risk factors; details: subcutaneous injection; compared with placebo

## Ac-Nle-c[Asp-His-DPhe-Arg-Trp-Lys]-NH2 [MT-II]
[1]; in vivo
  duration of action: approximately 2.5 hours
  time to onset of erection: 10 to 20 min
[1]; injected intramuscularly or subcutaneously
  response rate: 75%
[2]
  absorption into the systemic circulation: not absorbed into the systemic circulation
[3]
  level of sexual desire: significantly higher
